Results: patent US20250367211A1, “RESCUE TREATMENT OF POST OPERATIVE NAUSEA AND VOMITING” (ACACIA PHARMA LIMITED, priority 2017, published 2025)

How the values were obtained:
[1] = system: adult surgical patients at high risk of suffering PONV; test: Phase III trial, PONV prophylaxis in combination with a standard anti-emetic; assay type: in vivo, human; conditions: 5 mg in combination with a standard anti-emetic, 1147 evaluable patients, p<0.001 vs placebo plus standard anti-emetic (53%)
[2] = system: adult surgical patients at moderate-to-high risk of suffering PONV; test: Two Phase III placebo-controlled trials, PONV prophylaxis; assay type: in vivo, human; conditions: 5 mg, 626 evaluable patients, p<0.01 vs placebo (59%)
[3] = system: patients with PONV who had not received prior prophylaxis; test: Clinical trial, treatment of PONV in patients without prior prophylaxis; assay type: in vivo, human; conditions: no prior prophylaxis
Description: In another clinical trial conducted by the applicant, amisulpride at doses of 5 mg and 10 mg were compared with placebo for the treatment of PONV, in patients who had not received prior prophylaxis.

[4] = system: adult surgical patients at moderate-to-high risk of suffering PONV; test: Phase II dose-ranging trial, IV amisulpride for PONV prophylaxis; assay type: in vivo, human
Description: In a multi-centre, double-blind, randomised, dose-ranging Phase II trial (conducted by the applicant), amisulpride was given intravenously to adult surgical patients at moderate-to-high risk of suffering PONV (prophylaxis), at doses of 1 mg, 5 mg and 20 mg, with a fourth group receiving placebo.

[5] = system: adult patients with established PONV who have had prior PONV prophylaxis; test: Study 1: rescue treatment of established PONV after failed prior prophylaxis; assay type: in vivo, human; conditions: for complete response (CR) rate: no emesis 30 min to 24 h and no rescue medication in 24 h, placebo 28.5%
Description: A randomised, double-blind, placebo-controlled study of amisulpride for IV injection as treatment of established postoperative nausea and vomiting, in patients who have had prior prophylaxis was conducted. The primary aim of the study was to compare the efficacy of 5 mg and 10 mg amisulpride to placebo as treatment of established PONV, in patients who have had prior PONV prophylaxis.
The study was performed in adult patients (≥18 years) with an expected duration of inhalational anaesthesia of at least 1 hour, who experienced PONV in the 24-hour period after surgery, having had prior PONV prophylaxis.
Amisulpride at a dose of 5 mg or 10 mg or matching placebo was given once by slow IV administration, over about 2 minutes.
The primary efficacy variable was the dichotomous variable: success or failure of initial PONV treatment, where success is defined as no emetic episodes (vomiting or retching) from 30 minutes to 24 hours after administration of study medication and no administration of antiemetic rescue medication at any time in the 24-hour period after study medication (a “complete response”).
The secondary efficacy variables included: • The occurrence and severity of nausea (a VRS score >0) and of significant nausea (a VRS score ≥4), including measures of the time course of nausea, such as area under the curve for nausea scores for time periods up to 24 hours. • The occurrence of vomiting (to include retching) after administration of study medication. • Use of anti-emetic rescue medication. • Time to failure of initial PONV treatment. • Sub-analyses of success and failure according to various parameters, including by time of onset of PONV relative to end of surgery and by sex.

[6] = compared with the (R+)-enantiomer; cited from earlier work

SMILES	incidence of PONV [1] [%]	incidence of PONV [2] [%]	treatment of PONV versus placebo ([3]; 5 mg)	treatment of PONV versus placebo ([3]; 10 mg)	clinical efficacy, 5 mg versus 10 mg dose ([3]; treatment of PONV)	incidence of PONV ([4]; 1 mg intravenously, p<0.05 vs placebo (69%)) [%]	incidence of PONV ([4]; 5 mg intravenously, p<0.01 vs placebo (69%)) [%]	incidence of PONV compared to placebo ([4]; 20 mg intravenously, placebo 69%, not stated as significant)	complete response (CR) rate ([5]; 5 mg once by slow IV, 237 patients, p = 0.109)	complete response (CR) rate ([5]; 10 mg once by slow IV, 230 patients, p = 0.003)	efficacy as PONV rescue treatment, 10 mg versus 5 mg dose ([5]; patients with prior unsuccessful PONV prophylaxis)	share of therapeutic activity of amisulpride [6]
CCN1CCCC1CNC(=O)c1cc(S(=O)(=O)CC)c(N)cc1OC (racemic) [amisulpride]	42	48	significantly better than placebo	significantly better than placebo	no difference	48	40	lower	33.8% (p = 0.109)	41.7%, (p = 0.003)	more effective	–
CCN1CCCC1CNC(=O)c1cc(S(=O)(=O)CC)c(N)cc1OC (stereo not drawn) [(S−)-amisulpride]	–	–	–	–	–	–	–	–	–	–	–	almost all of the therapeutic activity
